In ChEMBL document CHEMBL4706652, “Synthesis of 4-(3-oxo-3-phenylpropyl)morpholin-4-ium chloride analogues and their inhibitory activities of nitric oxide production in lipopolysaccharide-induced BV2 cells” (Bioorg Med Chem Lett, 2021):
Structures can show the parent of a compound that is named as a salt.

How the values were obtained:
[1] = Inhibition of LPS-induced nitric oxide production in […] BV-2 cells at 20 uM measured after 24 hrs by Griess reagent assay relative to control; assay type: functional, Mus musculus; details: for inhibition at 20 µM: BV-2, 24 h
[2] = Cytotoxicity against LPS-induced […] BV-2 cells assessed as cell viability at 20 uM measured after 24 hrs by MTT assay relative to control; assay type: cell-based; details: for viability at 24 h, 20 µM: LPS-induced BV-2 cells, read-out: Activity
BV-2 [3] = assay: (§1) Inhibition of LPS-induced nitric oxide production in […] BV-2 cells measured after 24 hrs by Griess reagent assay; assay type: functional, cell-based
[4] = as §1; assay type: functional, cell-based; details: BV-2, 24 h
BV-2 [5] = assay: Inhibition of LPS-induced nitric oxide production in […] BV-2 cells assessed as decrease in iNOS mRNA expression pretreated with LPS for 1 hr and measured after 6 hrs by RT-PCR analysis; assay type: functional, cell-based; details: dose 2-20 µM, time 7.0 hrs
BV-2 [6] = assay: Inhibition of LPS-induced nitric oxide production in […] BV-2 cells assessed as decrease in iNOS protein expression pretreated with LPS for 1 hr and measured after 18 hrs by immunoblot analysis; assay type: functional, cell-based; details: dose 2-20 µM, time 19.0 hrs
[7] = Inhibition of LPS-induced nitric oxide production in […] BV-2 cells at 12.5 to 50 uM measured after 24 hrs by Griess reagent assay relative to control; assay type: functional; details: dose 12.5-50 µM
[8] = Cytotoxicity against LPS-induced […] BV-2 cells assessed as cell viability at 12.5 to 50 uM measured after 24 hrs by MTT assay; assay type: cell-based; details: bv-2, 24 h, dose 12.5-50 µM
cells = details: Homo sapiens, BV-2, 24 h, read-out: INH
Description: Inhibition of LPS-induced nitric oxide production in human BV-2 cells at 10 uM measured after 24 hrs by Griess reagent assay relative to control

SMILES | inhibition at 20 µM [1] [%] | viability at 24 h, 20 µM [2] [%] | also measured
O=C(CCN1CCOCC1)c1ccccc1 | 31.8 | 99.8 | 
O=C(CCN1CCOCC1)c1cccc(C(F)(F)F)c1 | 44.6 | 100 | 
O=C(CC(=O)N1CCOCC1)c1ccccc1 | 20.1 | 99.7 | 
Nc1ccc(C(=O)CCN2CCOCC2)cc1 | 25.2 | 100 | 
O=C(Cc1ccccc1)CN1CCOCC1 | 17.4 | 100 | 
COc1ccc(C(=O)CCN2CCOCC2)cc1 | 33.3 | 100 | 
O=C(CCN1CCOCC1)c1ccc(F)cc1 | 35.2 | 95 | 
O=C(CCN1CCOCC1)c1ccc(Br)cc1 | 41.6 | 100 | 
O=C(CCN1CCOCC1)c1ccc(O)cc1 | 26.5 | 99 | 
O=C(CCN1CCOCC1)c1ccccc1C(F)(F)F | 78.3 | 100 | inhibition (BV-2 [3]): Dose-dependent effect; IC50 [4]: 8.6 µM; inhibition (BV-2 [5]): Dose-dependent effect; inhibition (BV-2 [6]): Dose-dependent effect
O=C(CCN1CCOCC1)c1ccc([N+](=O)[O-])cc1 | 73.1 | 98.3 | 
O=C(CCN1CCOCC1)c1ccc(C(F)(F)F)cc1 | 50.3 | 96.1 | 
CN(C)c1ccc(C(=O)CCN2CCOCC2)cc1 | 32.8 | 100 | 
O=C(CCN1CCOCC1)c1ccc(Cl)cc1 | 40.3 | 100 | 
O=C(CCN1CCOCC1)c1ccc(I)cc1 | 41.6 | 89.4 | 
O=C(CN1CCOCC1)C(=O)c1ccccc1 | 19.2 | 100 | 
Cc1ccc(C(=O)CCN2CCOCC2)cc1 | 36 | 100 | 
Cl.O=C(CCN1CCOCC1)c1ccccc1 |  |  | inhibition (INH) [7]: 49%; Activity [8]: Non-Toxic; IC50 [4]: > 50 µM; inhibition (INH) [1]: 29.3%; Activity ([2]; bv-2, 24 h, 20 µM): 96.7%
CNCCC(Oc1ccc(C(F)(F)F)cc1)c1ccccc1 (centres undefined) [FLUOXETINE HYDROCHLORIDE] |  |  | inhibition at 10 µM (cells): 31.2%
